Data: patent US6756374B2, “Diaminothiazoles having antiproliferative activity” (Hoffmann-La Roche Inc., priority 2001, dated 2004)

Columns and labels:
human cyclin D1-CDK4 = human cyclin D1-CDK4 (Homo sapiens, UniProt P11802); assay: FlashPlate kinase assay, cyclin D1-CDK4; assay type: biochemical; settings: Rb protein substrate, 1 μM ATP
Procedure: (§1) To determine inhibition of Cdk4, Cdk2 and Cdk1 activity, kinase assays were conducted using FlashPlate™ assays (NEN™-Life Science Products). FlashPlate assays were performed using recombinant human cyclin B-CDK1, human cyclin E-CDK2 or human cyclin D1-CDK4 complexes. GST-cyclinE (GST-cycE), CDK2, GST-cyclinB (GST-cycB), CDK1, GST-CDK4 and cyclin D1 (cycD1) cDNA clones in baculovirus vectors were provided by Dr. W. Harper at the Baylor College of Medicine, Houston, Tex.
(§2) The expression of the 62Kd protein was under the control of an IPTG inducible promoter in an M15 E. coli strain. Cells were lysed by sonication and purification was carried out by binding lysates at pH 8.0 to a Ni-chelated agarose column pretreated with 1 mM imidazole. The resin was then washed several times with incrementally decreasing pH buffers to pH 6.0, and eluted with 500 mM imidazole. Eluted protein was dialysed against 20 mM HEPES pH 7.5, 30% glycerol, 200 mM NaCl, and 1 mM DTT. Purified Rb fusion protein stocks were quantitated for protein concentration, aliquoted, and stored at −70° C.
(§3) For all three kinase assays reported herein, 96-well FlashPlates were coated with Rb protein at 10 μg/ml, using 100 μl per well. Plates were incubated at 4° C. overnight or at room temperature for 3 hours on a shaker. To control for nonspecific phosphorylation, one row of wells was coated with 100 μl/well coating buffer (20 mM HEPES, 0.2 M NaCl). Plates were then washed twice with wash buffer (0.01% Tween 20 in phosphate-buffered saline). Compounds to be tested (“test compounds”) were added to the wells at 5×final concentration. Reactions were initiated by immediate addition of 40 μl reaction mix (25 mM HEPES, 20 mM MgCl2, 0.002% Tween 20, 2 mM DTT, 1 μM ATP, 4 nM ^33P-ATP) and a sufficient amount of enzyme to give counts that were at least 10-fold above background. Plates were incubated at room temperature on a shaker for 30 minutes. Plates were washed four times with the wash buffer, sealed, and counted on the TopCount scintillation counter (Packard Instrument Co., Downers Grove, Ill.]. The percent inhibition of Rb phosphorylation, which is a measure of the inhibition of CDK activity, was determined according to the following formula: [formula]
(§4) where “test compound” refers to the average counts per minute of the test duplicates, “nonspecific” refers to the average counts per minute when no CyclinD/Cdk4, etc., was added, and “total” refers to the average counts per minute when no compound was added.

HCT116 = assay: Tetrazolium dye (MTT) proliferation assay; assay type: cell-based; settings: Homo sapiens, HCT-116; HCT116 colorectal carcinoma cell line
Procedure: The cell line used was HCT116, a colorectal carcinoma cell line obtained from the American Type Cell Culture Collection (ATCC;
Rockville, Md.). The cells were grown in McCoy's 5A medium supplemented with 10% FCS and L-glutamine.
Cells were plated at the appropriate seeding density to give logarithmic growth over the course of the assay in a 96-well tissue culture plate. Plates were incubated overnight at 37° C. in a humidified incubator with 5% CO2. The next day, test compounds were serially diluted to four times the final concentration in the appropriate medium containing 1.2% DMSO. One-fourth final volume of each dilution was added in duplicate to the plates containing cells. The same volume of 1.2% DMSO in medium was added to a row of “control wells” such that the final concentration of DMSO in each well was 0.3%. Wells to which no cells were added served as the “blank.” Wells to which no inhibitor was added served as “no inhibitor control.” The plates were) returned to the incubator, and at set time points (determined by their growth curves) plates were analyzed as described below.
3-(4,5-dimethylthiazole-2-yl)-2,5-diphenyl-2H-tetrazolium bromide (thiazolyl blue; MTT; Sigma) was added to each well to yield a final concentration of 1 mg/ml. Plates were returned to the incubator for 2.5-3 hours at 37° C. The MTT-containing medium was removed and the resulting formazan metabolite was solubilized in 100% ethanol with shaking for 15 minutes at room temperature. Absorbance readings were taken in a microtiter plate reader (Dynatech and Molecular Devices plate readers were used interchangeably) at a wavelength of 570 nm with a 650 nm reference. Percent inhibition (% INH) is calculated by subtracting the absorbance of the blank well from all wells, then subtracting the ratio of the average absorbance of each test duplicate (SAVE) by the average of the controls (CAVE) from 1.00. The final number is then multiplied by 100 (% INH=(1.00−SAVE/CAVE)×100).

human cyclin B-CDK1 = human cyclin B-CDK1 (Homo sapiens, UniProt P06493); assay: FlashPlate kinase assay, cyclin B-CDK1; assay type: biochemical; settings: Rb protein substrate, 1 μM ATP
human cyclin B-CDK1, sequence (P06493 whole entry): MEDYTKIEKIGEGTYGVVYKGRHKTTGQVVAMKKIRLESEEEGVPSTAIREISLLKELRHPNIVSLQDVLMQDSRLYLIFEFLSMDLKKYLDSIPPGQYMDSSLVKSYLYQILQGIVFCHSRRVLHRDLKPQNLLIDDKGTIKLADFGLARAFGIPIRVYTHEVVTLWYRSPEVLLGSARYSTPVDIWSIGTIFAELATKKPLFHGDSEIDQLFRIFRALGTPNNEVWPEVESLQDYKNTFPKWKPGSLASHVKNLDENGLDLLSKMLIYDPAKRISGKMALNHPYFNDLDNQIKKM
human cyclin B-CDK1, sequence (P14635 whole entry partner): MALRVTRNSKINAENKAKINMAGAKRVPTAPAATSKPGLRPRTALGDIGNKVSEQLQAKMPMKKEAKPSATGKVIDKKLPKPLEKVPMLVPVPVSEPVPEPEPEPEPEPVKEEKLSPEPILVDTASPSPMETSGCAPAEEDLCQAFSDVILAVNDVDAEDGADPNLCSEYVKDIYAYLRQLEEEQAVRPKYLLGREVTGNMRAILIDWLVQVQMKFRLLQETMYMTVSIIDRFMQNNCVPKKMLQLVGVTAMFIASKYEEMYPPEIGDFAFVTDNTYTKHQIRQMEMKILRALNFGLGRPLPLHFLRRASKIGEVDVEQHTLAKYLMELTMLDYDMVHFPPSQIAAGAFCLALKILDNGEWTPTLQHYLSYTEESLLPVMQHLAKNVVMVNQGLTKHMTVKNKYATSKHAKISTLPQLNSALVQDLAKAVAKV
Procedure: as §1, §2, §3, §4

human cyclin E-CDK2 = human cyclin E-CDK2 (Homo sapiens, UniProt P24941); assay: FlashPlate kinase assay, cyclin E-CDK2; assay type: biochemical; settings: Rb protein substrate, 1 μM ATP
Procedure: as §1, §2, §3, §4

cells = settings: cited from earlier work
Cdk4 = Cdk4 (Homo sapiens, UniProt P11802); settings: cited from earlier work
Cdk4, sequence (P11802 whole entry, species assumed): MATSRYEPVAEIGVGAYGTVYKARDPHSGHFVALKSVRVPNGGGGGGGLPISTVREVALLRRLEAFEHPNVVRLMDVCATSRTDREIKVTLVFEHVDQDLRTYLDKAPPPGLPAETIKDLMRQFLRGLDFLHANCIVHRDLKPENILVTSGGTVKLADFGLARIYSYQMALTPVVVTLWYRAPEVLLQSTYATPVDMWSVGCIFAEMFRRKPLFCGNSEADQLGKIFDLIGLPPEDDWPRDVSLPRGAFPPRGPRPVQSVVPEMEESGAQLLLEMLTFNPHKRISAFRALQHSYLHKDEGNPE
Cdk4, sequence (P24385 whole entry partner, species assumed): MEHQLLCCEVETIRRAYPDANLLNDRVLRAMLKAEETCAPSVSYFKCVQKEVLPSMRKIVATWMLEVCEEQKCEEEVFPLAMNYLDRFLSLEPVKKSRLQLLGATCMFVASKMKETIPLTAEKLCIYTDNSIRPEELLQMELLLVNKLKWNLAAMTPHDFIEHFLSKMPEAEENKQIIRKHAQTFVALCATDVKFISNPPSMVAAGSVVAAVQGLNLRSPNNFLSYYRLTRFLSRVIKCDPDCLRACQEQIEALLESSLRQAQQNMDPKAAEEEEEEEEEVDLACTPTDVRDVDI

PKC = settings: cited from earlier work
Cdk2 = Cdk2 (Homo sapiens, UniProt P24941); settings: cited from earlier work
Cdk1 = Cdk1 (Homo sapiens, UniProt P06493); settings: cited from earlier work
Cdk1, sequence (P06493 whole entry, species assumed): as the sequence (P06493 whole entry) above
Cdk1, sequence (P14635 whole entry partner, species assumed): as the sequence (P14635 whole entry partner) above

human cyclin D1-CDK4, sequence (P11802 whole entry): as the sequence (P11802 whole entry, species assumed) above
human cyclin D1-CDK4, sequence (P24385 whole entry partner): as the sequence (P24385 whole entry partner, species assumed) above

`CC(C)C[C@H](CO)Nc1ccc(C(=O)c2sc(Nc3ccc(N4CCN(C)CC4)cc3)nc2N)cc1[N+](=O)[O-]` [Example 63, (R)-[4-Amino-2-[[4-(4-methyl-1-piperazinyl)phenyl]amino]-5-thiazolyl][3-nitro-4-[[1-(hydroxymethyl)-3-methylbutyl]amino]phenyl]methanone] gave an IC50 (human cyclin D1-CDK4) of 0.025 µM, an IC50 (HCT116) of 1.3 µM and an IC50 (human cyclin B-CDK1) of 5.2 µM. It also gave an IC50 (human cyclin E-CDK2) of 5.3 µM.
For `CN1CCN(c2ccc(Nc3nc(N)c(C(=O)c4ccc(N5CCC(O)CC5)c([N+](=O)[O-])c4)s3)cc2)CC1` [Example 64, [4-Amino-2-[[4-(4-methyl-1-piperazinyl)phenyl]amino]-5-thiazolyl][3-nitro-4-(4-hydroxy-1-piperidinyl)phenyl]methanone], the IC50 (human cyclin D1-CDK4) was 0.009 µM, the IC50 (HCT116) was 8 µM and the IC50 (human cyclin B-CDK1) was 3.5 µM. For the same compound, the IC50 (human cyclin E-CDK2) was 4.8 µM.
Work on `CN1CCN(c2ccc(Nc3nc(N)c(C(=O)c4ccc(N5CCCC5)c(N)c4)s3)cc2)CC1` [Example 65] yielded an IC50 (human cyclin D1-CDK4) of 0.026 µM, an IC50 (HCT116) of 1.2 µM and an IC50 (human cyclin B-CDK1) of 2.2 µM. The IC50 (human cyclin E-CDK2) was 7.4 µM.
Work on `CC(C)C[C@H](CO)Nc1ccc(C(=O)c2sc(Nc3ccc(N4CCN(C)CC4)cc3)nc2N)cc1N` [Example 66, (R)-[3-Amino-4-[[1-(hydroxymethyl)-3-methylbutyl]amino]phenyl][4-amino-2-[[4-(4-methyl-1-piperazinyl)phenyl]amino]-5-thiazolyl]methanone] yielded an IC50 (human cyclin D1-CDK4) of 0.02 µM, an IC50 (HCT116) of 10.8 µM and an IC50 (human cyclin B-CDK1) of 9.6 µM. The IC50 (human cyclin E-CDK2) was 3.8 µM.
For `CN1CC[C@H](c2c(O)cc(O)c3c(=O)cc(-c4ccccc4Cl)oc23)[C@H](O)C1` [Flavopiridol], the cell cycle block (cells) is given as “blocks cells in both G1 and G2 phases”, the “inhibition of Cdk4” value (Cdk4) is given as “inhibits” and the “inhibition of PKC” value (PKC) is given as “weaker inhibitor”. The “inhibition of Cdk2” value (Cdk2) was “inhibits” and the “inhibition of Cdk1” value (Cdk1) was “inhibits”.
